Here are results for one compound from patent US20060003893A1, “Controlled release fertilizers employing ureaform compounds and processes for making same” (priority 2004, published 2006).

This data set can be described thus: Controlled Release Soil Test (irrigated soil burial test). In kind it is physicochemical. An excerpt: To measure the relative solubilities of the products in soil, an irrigated soil burial test (“Controlled Release Soil Test”) was devised such that granules could be retrieved for measurement of their nitrogen content. The following is a description of the test.
Controlled Release Soil Test
Procedure for Controlled Release Soil Test
• 1. Screen the sample to obtain −6+7 Tyler mesh granules for the test. • 2. Label a freezer container with the test description. • 3. Place the freezer container on the 1200 g balance and tare out. • 4. Place 300 g of potting soil with a 40% moisture content into the container and record the weight. • 5. Over the soil place two (2) pieces of fiberglass mesh with 14 meshes to the inch and 1/16 inch openings. • 6. Tare out the container with the soil and fiberglass mesh screens. • 7. Spread 5 grams of −6+7 Tyler mesh granules over the screen in a single layer and record the weight. • 8. Place a large square of fiberglass mesh over the granules, with a stainless steel screen cut to fit over it, so that the shape of the container has been mirrored. • 9. Once this is shaped, tare out the container and add 150 g of soil and record the weight. • 10. Repeat this process for each sample to be tested (in triplet if possible). • 11. After all containers are completed, fill a mist spray bottle with de-ionized water and prime. • 12. […]

On to `NC(N)=O` [UREA, urea], for which the “time to go into solution” value was ≤ 9 h. Besides, under “9 hours”, the “Nitrogen Retained (%) 9 Hours” value is 0%.
